Assay results as given in ChEMBL document CHEMBL3044965, “Design, synthesis, and antimalarial evaluation of thiazole-derived amino acids” (Med Chem Res, 2008).
Calls of active or inactive are those of the source. The rule behind the calls is not given here.

How the values were obtained:
Plasmodium falciparum [1] = assay: Antiplasmodial activity against chloroquine-resistant Plasmodium falciparum assessed as inhibition of [3H]hypoxanthine incorporation incubated for 20 to 24 hr prior to [3H]hypoxanthine addition measured after 24 grs by microbeta scintillation counting; format: functional, organism-based
Plasmodium falciparum [2] = assay: Antiplasmodial activity against chloroquine-sensitive Plasmodium falciparum assessed as inhibition of [3H]hypoxanthine incorporation incubated for 20 to 24 hr prior to [3H]hypoxanthine addition measured after 24 grs by microbeta scintillation counting; format: functional, organism-based
Plasmodium falciparum [3] = assay: Antiplasmodial activity against chloroquine-resistant Plasmodium falciparum by schizont maturation assay; format: functional, organism-based
[4] = Cytotoxicity against Homo sapiens (human) RBC assessed as cell lysis; format: cell-based; details: erythrocyte
Plasmodium falciparum [5] = assay: Antiplasmodial activity against chloroquine-sensitive Plasmodium falciparum by schizont maturation assay; format: functional, organism-based

CC(C)C[C@H](NC(=O)OC(C)(C)C)C(=O)Nc1nccs1
IC50 (Plasmodium falciparum [1]): 8.96 µM
IC90 (Plasmodium falciparum [1]): 18.3 µM
IC50 (Plasmodium falciparum [2]): 6.31 µM
IC90 (Plasmodium falciparum [2]): 14.5 µM

CC(C)(C)OC(=O)N[C@@H](Cc1ccccc1)C(=O)Nc1nccs1
IC50 (Plasmodium falciparum [1]): 7.41 µM
IC90 (Plasmodium falciparum [1]): 18.6 µM
IC50 (Plasmodium falciparum [2]): 5.62 µM
IC90 (Plasmodium falciparum [2]): 16.3 µM

CCN(CC)CCCC(C)Nc1ccnc2cc(Cl)ccc12 (stereo not drawn) [CHLOROQUINE]
IC90 (Plasmodium falciparum [1]): 0.25 µM
IC90 (Plasmodium falciparum [2]): 0.05 µM

CC1CCCN1[C@H](NC(=O)OC(C)(C)C)C(=O)Nc1nccs1 (stereo partly drawn)
IC50 (Plasmodium falciparum [1]): 6.12 µM
IC90 (Plasmodium falciparum [1]): 12.7 µM
Activity (Plasmodium falciparum [3]): Active
Activity [4]: Non-toxic
IC50 (Plasmodium falciparum [2]): 4.89 µM
IC90 (Plasmodium falciparum [2]): 11.1 µM
IC99 (Plasmodium falciparum [2]): 14.9 µM
Activity (Plasmodium falciparum [5]): Active

CC[C@H](C)[C@H](NC(=O)OC(C)(C)C)C(=O)Nc1nccs1
IC50 (Plasmodium falciparum [1]): 7.84 µM
IC90 (Plasmodium falciparum [1]): 11.1 µM
IC50 (Plasmodium falciparum [2]): 6.32 µM
IC90 (Plasmodium falciparum [2]): 9.74 µM

N[C@H](Cc1ccccc1)C(=O)Nc1nccs1
IC50 (Plasmodium falciparum [1]): 17.4 µM
IC90 (Plasmodium falciparum [1]): 45.7 µM
IC50 (Plasmodium falciparum [2]): 16.1 µM
IC90 (Plasmodium falciparum [2]): 33.5 µM

C[C@H](NC(=O)OC(C)(C)C)C(=O)Nc1nccs1
IC50 (Plasmodium falciparum [1]): 18.7 µM
IC90 (Plasmodium falciparum [1]): 27.2 µM
IC50 (Plasmodium falciparum [2]): 12.1 µM
IC90 (Plasmodium falciparum [2]): 24.5 µM

N[C@H](Cc1c[nH]c2ccccc12)C(=O)Nc1nccs1
IC50 (Plasmodium falciparum [1]): 19.5 µM
IC90 (Plasmodium falciparum [1]): 17.1 µM
IC50 (Plasmodium falciparum [2]): 11.1 µM
IC90 (Plasmodium falciparum [2]): 16.1 µM

CSCC[C@H](NC(=O)OC(C)(C)C)C(=O)Nc1nccs1
IC50 (Plasmodium falciparum [1]): 18.2 µM
IC90 (Plasmodium falciparum [1]): 31.4 µM
IC50 (Plasmodium falciparum [2]): 10.2 µM
IC90 (Plasmodium falciparum [2]): 29.1 µM

CC(C)[C@H](NC(=O)OC(C)(C)C)C(=O)Nc1nccs1
IC50 (Plasmodium falciparum [1]): 10.9 µM
IC90 (Plasmodium falciparum [1]): 18.6 µM
IC50 (Plasmodium falciparum [2]): 9.32 µM
IC90 (Plasmodium falciparum [2]): 12.5 µM

CC(C)(C)OC(=O)N[C@@H](Cc1c[nH]c2ccccc12)C(=O)Nc1nccs1
IC50 (Plasmodium falciparum [1]): 4.87 µM
IC90 (Plasmodium falciparum [1]): 9.12 µM
Activity (Plasmodium falciparum [3]): Active
Activity [4]: Non-toxic
IC50 (Plasmodium falciparum [2]): 3.45 µM
IC90 (Plasmodium falciparum [2]): 7.89 µM
IC99 (Plasmodium falciparum [2]): 18.1 µM
Activity (Plasmodium falciparum [5]): Active

CC(C)(C)OC(=O)NCC(=O)Nc1nccs1
IC50 (Plasmodium falciparum [1]): 17.5 µM
IC90 (Plasmodium falciparum [1]): 22.4 µM
IC50 (Plasmodium falciparum [2]): 14.3 µM
IC90 (Plasmodium falciparum [2]): 21.3 µM

CC(C)(C)OC(=O)N[C@@H](CSCc1ccccc1)C(=O)Nc1nccs1
IC50 (Plasmodium falciparum [1]): 10.8 µM
IC90 (Plasmodium falciparum [1]): 15.5 µM
IC50 (Plasmodium falciparum [2]): 9.11 µM
IC90 (Plasmodium falciparum [2]): 12.6 µM
